SMILES strings stand for the structures.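 Step 1: Grow cells in 96-well plates. Step 2: Expose to compound for 48 hours at 5 concentrations. Step 3: Interpolate endpoints linearly; if unreached, use highest concentration. TGI: concentration producing complete growth inhibition.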 Where only a bound is given, the exact number is not on record here.

What all share (test): NCI anticancer screen, dose series, 48 h
Assay [1] relates to OVCAR-5 ovarian.
Assay [2] deals with 786-0 renal.
The test system of assay [3] is CAKI-1 renal.
In assay [4] the test system is OVCAR-8 ovarian.
The test system of assay [5] is HCT-116 colon.
The subject of assay [6] is HT29 colon.
Assay [7] concerns SK-MEL-28 melanoma.
Assay [8] has as its system RPMI-8226 leukemia.
In assay [9] the test system is SK-MEL-2 melanoma.
Assay [10] deals with SN12C renal.
For assay [11], the system named is DU-145 prostate.
The subject of assay [12] is U251 CNS.

For `O=C1CCCN1C(=O)CS(=O)(=O)c1ccccc1`, the TGI in assay [1], in [2], in assay [3], in assay [4], in assay [5] and in assay [6] was greater than 100 µM throughout. Moreover, the TGI in assay [7], in [8], in assay [9], in assay [10], in assay [11] and in [12] was greater than 100 µM in each case.

Turning to `COc1cc2c(cc1OC)C1C=NC(C2)c2cc(OC)c(OC)cc21` (configuration not stated), the TGI in assay [1], in assay [2], in assay [3], in assay [4], in assay [5] and in assay [6] was greater than 100 µM throughout. The TGI in assay [7], in [8], in assay [9], in assay [10], in [11] and in [12] was greater than 100 µM in each case.

Turning to `CN(C)CCCN1c2ccccc2Sc2ccc3ccccc3c21`, the TGI in assay [1] is 24.7 µM; in assay [2] it was 23.4 µM; in [3], 18.1 µM; in [4], 27.1 µM; in [5], 22.9 µM; in assay [6] it was 12.5 µM. Besides, the TGI was 4.26 µM in assay [7]; 7.45 µM in [8]; 13.1 µM in [9]; 22.9 µM in assay [10]; 25.4 µM in [11]; 20 µM in [12].

For the compound `CCOC(=O)c1c(C)nc2c1c(CN(C)C)c(O)c1[nH]c(C)c(C)nc12`, the TGI in assay [1] is 94 µM; in [2] it was 49.5 µM; in assay [3], greater than 100 µM; in [4], 60.4 µM; in assay [5], 42.8 µM; in [6] it was 81.6 µM. Also, the TGI in assay [7] is 76.9 µM; in assay [8], 43.8 µM; in assay [9] it was 43.8 µM; in assay [10], 38.4 µM; in assay [11] it was greater than 100 µM; in [12], 68.7 µM.

As to `O=S1(=O)OCCOS(=O)(=O)C1(F)Br`, the TGI in assay [1], in [2], in assay [3], in assay [4], in assay [5] and in assay [6] was greater than 100 µM throughout. Besides, the TGI in [7], in assay [8], in assay [9], in [10], in assay [11] and in assay [12] was greater than 100 µM in each case.

Consider `COc1c(Br)cc2c(c1OC)C(Br)CCC(Br)(Br)C2=O` (configuration not stated), for which the TGI in assay [1] is 13.6 µM; in [2], 1.46 µM; in assay [3] it was 8.3 µM; in assay [4], 1.53 µM; in assay [5], 0.853 µM; in assay [6], 3.71 µM. For the same compound, the TGI in assay [7] was 8.88 µM; in [8], 6.06 µM; in assay [9], 4.4 µM; in assay [10] it was 1.42 µM; in [11], 9.64 µM; in assay [12], 5.91 µM.

Regarding `CCC1(c2ccccc2)C(=O)N=C(c2ccccc2)N1CCc1ccccc1` (configuration not stated), the TGI in assay [1], in assay [2], in [3], in [4], in assay [5] and in [6] was greater than 100 µM each time. Moreover, the TGI in [7], in assay [8], in [9], in assay [10], in assay [11] and in assay [12] was greater than 100 µM throughout.

Regarding `O=C1OCC2OC(=O)c3cc(O)c(O)c(O)c3-c3c(O)c(O)c(O)c4c3C(=O)OC(C2OC(=O)c2cc(O)c(O)c(O)c2-c2c1cc(O)c(O)c2O)C1OC(=O)c2c-4c(O)c(O)c(O)c2[C@@H]1C(O)C(O)C(O)C(O)CO` (some centres not stated), the TGI in [1] worked out at 33 µM; in [2], 34.7 µM; in assay [3], 26.7 µM; in assay [4], 44.1 µM; in [5] it was 31.3 µM; in assay [6], 36 µM. In addition, the TGI in [7] was greater than 100 µM; in [8] it was 73.8 µM; in assay [9], 48.3 µM; in [10], 32.6 µM; in [11] it was 47.5 µM; in [12], 48.7 µM.

With `CC(C)(C)c1cc2c(OC/C=C/c3ccccc3)c(c1)Cc1cc(C(C#N)(OC/C=C/c3ccccc3)OC/C=C/c3ccccc3)cc(c1OC/C=C\c1ccccc1)Cc1cc(C(C)(C)C)cc(c1OC/C=C/c1ccccc1)Cc1cc(C(C#N)(OC/C=C\c3ccccc3)OC/C=C/c3ccccc3)cc(c1OC/C=C\c1ccccc1)C2` (configuration not stated), the TGI in [1], in [2], in [3], in assay [4], in assay [5] and in assay [6] was greater than 100 µM in each case. Moreover, the TGI in assay [7], in assay [8], in assay [9], in [10], in assay [11] and in assay [12] was greater than 100 µM throughout.

As to `Cn1c(=O)c2c(nc3n2CC(=O)N3CCCCl)n(C)c1=O`, the TGI in assay [1], in assay [2], in [3], in assay [4], in assay [5] and in assay [6] was greater than 100 µM throughout. The TGI in assay [7], in [8], in [9], in assay [10], in assay [11] and in [12] was greater than 100 µM throughout.

With `CCOC(=O)C1C(c2ccc3c(c2)OCO3)c2c([nH][nH]c2=O)CC1(C)O` (configuration not stated), the TGI in assay [1], in assay [2], in assay [3], in [4], in assay [5] and in assay [6] was greater than 100 µM in each case. For the same compound, the TGI in assay [7], in [8], in [9], in [10], in assay [11] and in [12] was greater than 100 µM throughout.
